Read-outs that look alike come from different tables or passages of the source.
What was measured:
Alternaria mali = details: active compound concentration 1 ppm; 3 days incubation in PDB; single active compound
Pyricularia oryzae = type: cell-based

Compound: CC(C)Oc1cccc(NC(=O)c2ccccc2C(F)(F)F)c1 [(3) flutolanil, flutolanil]
- Efficacy in % found (Alternaria mali): 12%

Compound: COP(=S)(OC)Oc1c(Cl)cc(C)cc1Cl [(2) tolclofos-methyl, tolclofos-methyl]
- Efficacy in % found (Pyricularia oryzae): 13%

Compound: Cc1nn(C)c(F)c1C(=O)Nc1ccccc1C(C)CC(C)C (stereo not shown) [(1-2), N-[2-(1,3-dimethylbutyl)phenyl]-5-fluoro-1,3-dimethyl-1H-pyrazole-4-carboxamide]
- Efficacy in % found (Pyricularia oryzae; active compound concentration 0.03 ppm, 4 days incubation in PDB, single active compound): 20%
- Efficacy in % found (Alternaria mali): 83%
